Among the data in ChEMBL document CHEMBL1909608, “Actinopolysporins A-C and tubercidin as a Pdcd4 stabilizer from the halophilic actinomycete Actinopolyspora erythraea YIM 90600” (J Nat Prod, 2011) are inhibition, max activation and Activity values, retold here.

Calls of active or inactive are those of the source. The rule behind the calls is not given here. A value given as a limit tells only on which side of the number the result lay.

Holding throughout (type): cell-based
Series [1] has as its target T1, Programmed cell death protein 4 (Homo sapiens) (UniProt Q53EL6).
T1 sequence (whole entry): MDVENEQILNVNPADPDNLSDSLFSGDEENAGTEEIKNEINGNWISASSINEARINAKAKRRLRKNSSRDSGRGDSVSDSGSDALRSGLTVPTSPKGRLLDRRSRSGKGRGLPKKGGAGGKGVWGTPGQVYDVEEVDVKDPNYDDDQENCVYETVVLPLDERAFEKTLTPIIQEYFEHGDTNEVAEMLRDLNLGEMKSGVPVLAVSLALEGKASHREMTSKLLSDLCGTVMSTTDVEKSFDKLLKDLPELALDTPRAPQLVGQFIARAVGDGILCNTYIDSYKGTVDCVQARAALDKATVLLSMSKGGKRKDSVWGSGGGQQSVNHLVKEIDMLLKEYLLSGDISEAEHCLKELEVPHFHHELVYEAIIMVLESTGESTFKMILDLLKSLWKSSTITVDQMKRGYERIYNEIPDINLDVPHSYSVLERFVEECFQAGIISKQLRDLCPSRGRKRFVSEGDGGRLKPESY
As to the kind of experiment: Stabilization of Pdcd4 expressed in human HEK293 cells assessed as inhibition of TPA-induced degradation by luciferase reporter assay.

The target in series [2] is T1, Programmed cell death protein 4 (Homo sapiens). As to the kind of experiment: Stabilization of Pdcd4 expressed in TPA-stimulated human HEK293 cells at 2.5 uM by luciferase reporter assay.
Series [3] concerns HEK293. The series is described as follows: Cytotoxicity against human HEK293 cells.

Turning to `COC(=O)/C(C)=C/C(C)CC(C)CC(C)(O)C(C)O` (stereo not given), the inhibition entry in series [1] was “inactive”.

Compound `Nc1ncnc2c1ccn2[C@@H]1O[C@H](CO)[C@@H](O)[C@H]1O` [TUBERCIDIN] registered a max activation in series [2] of 94.2%. This compound showed an Activity in series [3] of over 2.5 µM.

On to `COC(=O)/C(C)=C/C(C)CC(C)CC(C)(O)CC(C)O` (stereo not given), for which, in series [1], the inhibition entry was “inactive”.

Turning to `CCC(=O)/C(C)=C/C(C)CC(C)CC(C)(O)CC` (stereo not given), the inhibition result in series [1] is “inactive”.
